In patent US11286246B2, “Pro-drugs and related methods” (Aposense LTD., priority 2015, dated 2022):

Tests used:
Assay type in all cases: physicochemical
[1] = Reduction-induced cleavage with one equivalent of TCEP, HPLC-MS; details: room temperature, 18 hours
Method: (§1) A DMSO solution of Compound 5 was incubated at room temperature for 24 hours. […] The Compound was then incubated at room temperature with one equivalent of the reducing agent tris (2-carboxyethyl) phosphine (TCEP). […] Intact Compound 5; (ii). a product corresponding to Compound 5 with two reduced thiol groups (Product 1); (iii). a product corresponding to cleaved Fragment A; and (iv). a product corresponding to cleaved Fragment B.
(§2) However, in reductive conditions, conversion of the disulfide into free thiol groups takes place. Importantly, this step is evidently followed by an intramolecular reaction, with molecular cleavage at the carbamate moiety, conceivably related to nucleophilic attack on the respective carbonyl by a thiol or a thiolate group, conveniently located at the sixth atom position. Therefore, the Compound manifests selective reduction-dependent cleavage. The site of the nucleophilic attack is described in the following Scheme 4: […]

[2] = Stability of Compound 5 in DMSO solution (non-reductive environment), HPLC-MS; details: room temperature, 24 hours, no reducing agent
Method: as §1, §2

[3] = Reduction-induced cleavage with 100 equivalents of DTT, HPLC/MS; details: 100 equiv DTT, DMSO/aqueous buffer pH 7.0, 37° C., argon
Method: The experiment comprised incubation of Compound B with 100 equivalents of the reducing agent DTT (0.1 mL of 2 M solution), 1.0 mL DMSO in aqueous buffer (pH=7.0), at 37° C. under argon atmosphere. Three sets of samples were analyzed by HPLC/MS: at 1 hour, 6 hours, and at 24 hours. […] This structure was thereafter maintained throughout the experiment.
Importantly however, HPLC/MS also indicated the formation of Compound B3, indicating cleavage of Compound B2, at the carbamate bond, with release of the phenolic moiety, Compound B3:
There was evidence for such cleavage, with release of Compound B3, already at one hour of incubation, where 30% cleavage was detected. This increased to 90% of cleaved product at 6 hours, and full cleavage by 24 hours.

[4] = Reduction-induced cleavage with excess dithiothreitol (15 equiv), HPLC/MS; details: 15 equiv DTT, DMSO/phosphate buffer pH 7, 37° C., argon
Method: Dithiothreitol (DTT) is a reducing agent; once oxidized, it forms a stable six-membered ring, with an internal disulfide bond. Disulfide compound A was treated with excess dithiothreitol (15 equiv, aq. 0.5M, pH adjusted to 7 with phosphate buffer solution) in DMSO and phosphate buffer solution (pH 7) at 37° C. under an argon atmosphere. Two sets of samples were analyzed by HPLC/MS: at 6 and at 24 hours.
As expected, the peak at 24 hours was of larger amplitude (70% vs. 30%).

C[C@]12CC[C@@H]3c4ccc(OC(=O)N(CCCCCCO)C5CCSSC5)cc4CC[C@H]3[C@@H]1CC[C@@H]2OCCCOC(C(F)(F)F)(C(F)(F)F)C(F)(F)F (stereo partly drawn) [Compound 5]
HPLC-MS products after incubation with reducing agent (intact compound, reduced Product 1, cleaved Fragment A, cleaved Fragment B) [1]: four distinct peaks | stability of the DMSO solution by HPLC-MS [2]: stable and intact

C[C@]12CC[C@@H]3c4cc(F)c(OC(=O)N(CCCO)C5CCSSC5)cc4CC[C@H]3[C@@H]1CC[C@@H]2OCCCOC(C(F)(F)F)(C(F)(F)F)C(F)(F)F (stereo partly drawn) [Compound B]
cleavage with release of Compound B3 ([3]; 6 hours): 90% | cleavage with release of Compound B3 ([3]; 24 hours): full cleavage | cleavage with release of Compound B3 ([3]; one hour): 30% | reduction of the disulphide bond (conversion of Compound B to Compound B2) ([3]; one hour): full conversion

CCCCCCN(C(=O)Oc1ccccc1)[C@H]1CCSSC1 [Compound A]
cleavage (peak amplitude of cleavage product A3) ([4]; 6 hours): 30% | reduction of the disulphide bond (A2) ([4]; 6 hours): clearly visible | cleavage (peak amplitude of cleavage product A3) ([4]; 24 hours): 70%
